Patent US20260176279A1, “DUAL RAF AND TUBULIN INHIBITORS AND METHODS OF USE THEREOF” (Deciphera Pharmaceuticals, LLC, priority 2023, published 2026)
Like-named read-outs stand apart in the source and are kept apart here.

Tests used:
B-Raf kinase = target: T1, B-Raf kinase (Homo sapiens, UniProt P15056); test: Biochemical Assay for B-Raf (coupled pyruvate kinase/lactate dehydrogenase assay)
T1 construct: GST (N); purchased Sigma

C-Raf kinase = target: T2, C-Raf kinase (Homo sapiens, UniProt P04049, Y340D/Y341D); test: Biochemical Assay for C-Raf (coupled pyruvate kinase/lactate dehydrogenase assay)
T2 construct: C-Raf residues 306-end; Y340D, Y341D with N-; GST (N); purchased Eurofins
T2 sequence (P04049 307-648 Y340D/Y341D): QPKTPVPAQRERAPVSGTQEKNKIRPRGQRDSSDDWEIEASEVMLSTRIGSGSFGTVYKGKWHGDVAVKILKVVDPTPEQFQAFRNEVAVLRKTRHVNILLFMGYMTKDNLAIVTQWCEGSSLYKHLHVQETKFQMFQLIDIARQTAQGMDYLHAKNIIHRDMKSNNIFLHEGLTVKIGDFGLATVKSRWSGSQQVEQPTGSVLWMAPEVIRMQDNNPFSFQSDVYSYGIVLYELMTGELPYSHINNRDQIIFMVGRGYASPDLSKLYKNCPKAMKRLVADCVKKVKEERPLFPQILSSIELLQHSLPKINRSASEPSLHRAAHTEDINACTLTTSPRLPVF

MiaPaca-2 cells = test: MiaPaca-2 Cell Proliferation Assay; type: cell-based; details: Homo sapiens, MIA PaCa-2
Method: MiaPaca-2 cells (catalog #CRL-1420) are obtained from the American Type Culture Collect (ATTC, Manassas, VA). Briefly, cells were grown in DMEM supplemented with 10% characterized fetal bovine serum (Invitrogen, Carlsbad, CA), 2.5% New Zealand sourced horse serum and 1% Penicillin/Streptomycin/L-Glutamine at 37° C., 5% CO2, and 95% humidity. Cells are expanded until reaching 70-95% confluency at which point they are sub-cultured or harvested for assay use. For assays completed in 96-well plates, a serial dilution of test compound is dispensed into a 96-well black clear bottom plate in triplicate. Three thousand cells are added per well in 200 μL complete growth medium in the 96-well plate. Plates are incubated for 67 to 72 h at 37° C., 5% CO2, and 95% humidity. At the end of the incubation, 40 μL of a […] solution of resazurin (Sigma, St. Louis, MO) in PBS is added to each well of the plate and plates are incubated for an additional 5 to 6 hours at 37° C., 5% CO2, and 95% humidity. For 384-well assays, a threefold, 8-point serial dilution of compound was spotted column wise into a 384 well black, clear bottom, tissue culture treated plate using the Beckman Coulter Echo 650. Likewise, a threefold, 8-point serial dilution of cobimetinib was spotted row wise into the 384 well black, clear bottom plate containing compound. DMSO concentration was constant across all wells at 0.4%. Seven hundred fifty cells are added per well in 50 μL complete growth medium in each 384-well plate. Plates are incubated for 67 to 72 h at 37° C., 5% CO2, and 95% humidity. At the end of the incubation, 10 μL of a 440 μM solution of resazurin (Sigma, St. Louis, MO) in PBS is added to each well of the plate and plates are incubated for an additional 4 to 6 h at 37° C., 5% CO2, and 95% humidity. Plates are read on a Synergy2 or equivalent reader (Biotek, Winooski VT) using an excitation of 540 nm and an emission of 600 nm. Data is analyzed using Prism software (Graphpad, San Diego, CA) to calculate IC50 values.

HCT-116 cells = test: HCT-116 Cell Proliferation Assay; type: cell-based; details: Homo sapiens
Method: HCT-116 cells (catalog #CCL-247) are obtained from the American Type Culture Collect (ATCC, Manassas, VA). Briefly, cells are grown in McCoy's 5A supplemented with 10% characterized fetal bovine serum (Invitrogen, Carlsbad, CA) and 1% Penicillin/Streptomycin/L-Glutamine at 37° C., 5% CO2, and 95% humidity. Cells are expanded until reaching 70-95% confluency at which point they are sub-cultured or harvested for assay use. A serial dilution of test compound is dispensed into a 384-well black clear bottom plate in triplicate. 375 cells are added per well in 50 μL complete growth medium in the 384-well plate. Plates are incubated for 67 to 72 h at 37° C., 5% CO2, and 95% humidity. At the end of the incubation, 40 μL of a […] solution of resazurin (Sigma, St. Louis, MO) in PBS is added to each well of the plate and plates are incubated for an additional 4 to 5 hours at 37° C., 5% CO2, and 95% humidity. Plates are read on a Synergy2 or equivalent reader (Biotek, Winooski, VT) using an excitation of 540 nm and an emission of 600 nm. Data is analyzed using Prism software (Graphpad, San Diego, CA) to calculate IC50 values.

HPAF-II cells = test: HPAF-II Cell Proliferation Assay; type: cell-based; details: Homo sapiens
Method: HPAF-II cells (catalog #CRL-1997) are obtained from the American Type Culture Collect (ATCC, Manassas, VA). Briefly, cells are grown in Minimum Essential Media supplemented with 10% characterized fetal bovine serum (Invitrogen, Carlsbad, CA) and 1% Penicillin/Streptomycin/L-Glutamine at 37° C., 5% CO2, and 95% humidity. Cells are expanded until reaching 70-95% confluency at which point they are sub-cultured or harvested for assay use. A serial dilution of test compound is dispensed into a 384-well black clear bottom plate in triplicate. 750 cells are added per well in 50 μL complete growth medium in the 384-well plate. Plates are incubated for 115 to 120 h at 37° C., 5% CO2, and 95% humidity. At the end of the incubation, 40 μL of a […] solution of resazurin (Sigma, St. Louis, MO) in PBS is added to each well of the plate and plates are incubated for an additional 18 to 24 h at 37° C., 5% CO2, and 95% humidity. Plates are read on a Synergy2 or equivalent reader (Biotek, Winooski, VT) using an excitation of 540 nm and an emission of 600 nm. Data is analyzed using Prism software (Graphpad, San Diego, CA) to calculate IC50 values.

Pa16c cells = test: Pa16c Cell Proliferation Assay; type: cell-based; details: Table 2, inhibition of cell proliferation
Method: Pa16c cells are obtained from Dr. Channing Der, University of North Carolina at Chapel Hill. Briefly, cells are grown in Dulbecco's Modified Eagle Medium supplemented with 10% characterized fetal bovine serum (Invitrogen, Carlsbad, CA) and 1% Penicillin/Streptomycin/L-Glutamine at 37° C., 5% CO2, and 95% humidity. Cells are expanded until reaching 70-95% confluency at which point they are sub-cultured or harvested for assay use. A serial dilution of test compound is dispensed into a 384-well black clear bottom plate in triplicate. 750 cells are added per well in 50 μL complete growth medium in the 384-well plate. Plates are incubated for 67 to 72 hours at 37° C., 5% CO2, and 95% humidity. At the end of the incubation, 40 μL of a […] solution of resazurin (Sigma, St. Louis, MO) in PBS is added to each well of the plate and plates are incubated for an additional 18 to 24 hours at 37° C., 5% CO2, and 95% humidity. Plates are read on a Synergy2 or equivalent reader (Biotek, Winooski, VT) using an excitation of 540 nm and an emission of 600 nm. Data is analyzed using Prism software (Graphpad, San Diego, CA) to calculate IC50 values.

tubulin = test: Cellular Tubulin Polymerization Assay (HCT-116 cells); type: cell-based; details: Table 3, HCT-116 cells; read-out: Tubulin Cellular IC50
[1] = Table 1, inhibition of biochemical activity, read-out: BRAF
[2] = Table 1, inhibition of biochemical activity, read-out: CRAF
[3] = Table 2, inhibition of cell proliferation, read-out: MiaPaca-2
[4] = Table 3, read-out: MiaPaca-2 IC50
[5] = HCT-116, Table 3, read-out: HCT-116 IC50
[6] = Table 2, inhibition of cell proliferation, read-out: HCT-116
[7] = HPAF-II, Table 3, read-out: HPAF-II IC50
[8] = Table 2, inhibition of cell proliferation, read-out: HPAF-II

T1 sequence (P15056 416-766): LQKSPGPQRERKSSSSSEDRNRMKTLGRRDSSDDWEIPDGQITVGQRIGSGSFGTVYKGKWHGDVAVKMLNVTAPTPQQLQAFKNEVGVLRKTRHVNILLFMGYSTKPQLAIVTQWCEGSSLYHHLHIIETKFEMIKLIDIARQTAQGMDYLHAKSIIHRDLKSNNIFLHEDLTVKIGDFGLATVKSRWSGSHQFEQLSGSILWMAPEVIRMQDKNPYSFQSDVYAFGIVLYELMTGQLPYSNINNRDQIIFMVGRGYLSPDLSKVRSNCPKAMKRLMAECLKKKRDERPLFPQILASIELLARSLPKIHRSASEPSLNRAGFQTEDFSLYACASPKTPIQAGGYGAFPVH

IC50 (B-Raf kinase; [1]) [nM] | IC50 (B-Raf kinase; Table 3, read-out: BRAF IC50) [nM] | IC50 (C-Raf kinase; [2]) [nM] | IC50 (C-Raf kinase; Table 3, read-out: CRAF IC50) [nM] | IC50 (MiaPaca-2 cells; [3]) [nM] | IC50 (MiaPaca-2 cells; [4]) [nM] | IC50 (HCT-116 cells; [5]) [nM] | IC50 (HCT-116 cells; [6]) [nM] | IC50 (tubulin) [nM] | Compound | IC50 (HPAF-II cells; [7]) [nM] | IC50 (HPAF-II cells; [8]) [nM] | IC50 (Pa16c cells) [nM]
< 100 | < 100 | < 100 | < 100 | < 100 | < 100 | < 100 | < 100 | < 100 | CC(=O)Nc1cc(-c2cc(-c3cc(NC(=O)Nc4ccc(C(F)(F)F)nc4)ccc3C)ccn2)ccn1 [Example 4] | 100 to 500 | 100 to 500 | < 100
< 100 | < 100 | < 100 | < 100 | < 100 | < 100 | < 100 | < 100 | < 100 | CC(=O)Nc1cc(-c2cc(-c3cc(NC(=O)Nc4ccc(C(F)(F)F)nc4)ccc3C)cn(C)c2=O)ccn1 [Example 9] | 500 to 1000 | 500 to 1000 | 100 to 500
100 to 500 | 100 to 500 | < 100 | 100 to 500 | < 100 | < 100 | < 100 | < 100 | – | CNc1cc(-c2cc(-c3cc(NC(=O)Nc4ccc(C(F)(F)F)nc4)ccc3C)cc(OCCO)n2)ccn1 [Example 17] | 500 to 1000 | 500 to 1000 | < 100
< 100 | – | < 100 | – | 500 to 1000 | – | – | 500 to 1000 | – | Cc1ccc(NC(=O)Nc2cc(C(F)(F)F)cnn2)cc1-c1ccnc(-c2ccnc(NC(=O)C3CC3)c2)c1 [Example 22, N-(4-(2-methyl-5-(3-(5-(trifluoromethyl)pyridazin-3-yl)ureido)phenyl)-[2,4′-bipyridin]-2′-yl)cyclopropanecarboxamide] | – | 1000 to 10000 | 1000 to 10000
100 to 500 | 100 to 500 | < 100 | 100 to 500 | < 100 | < 100 | < 100 | < 100 | < 100 | Cc1ccc(NC(=O)Nc2ccc(C(F)(F)F)nc2)cc1-c1cc(N2CCOCC2)nc(N2CCC(O)CC2)n1 [Example 34] | 100 to 500 | 100 to 500 | 500 to 1000
100 to 500 | 100 to 500 | < 100 | < 100 | < 100 | < 100 | < 100 | < 100 | < 100 | Cc1ccc(NC(=O)Nc2ccc(C(F)(F)F)nc2)cc1-c1cc(OC[C@H](C)O)nc(N2CCOCC2)c1 [Example 39] | < 100 | < 100 | 100 to 500
< 100 | 100 to 500 | < 100 | < 100 | < 100 | < 100 | < 100 | < 100 | < 100 | Cc1ccc(NC(=O)Nc2ccc(C(F)(F)F)nc2)cc1-c1cc(OC[C@@H](C)O)nc(N2CCOCC2)c1 [Example 40] | < 100 | < 100 | 100 to 500
